Test [1] concerns Pseudomonas aeruginosa. Kind of test: Antimicrobial activity against Pseudomonas aeruginosa (ATCC 27853). It is filed as functional.
Test [2] has as its system Acinetobacter calcoaceticus. Kind of test: Antimicrobial activity against Acinetobacter calcoaceticus (GC 756). Format: functional.
In another test the test system is Enterococcus faecium. Kind of test: The compound was evaluated for the antimicrobial activity against Enterococcus faecium (GC 1182). It is filed as functional.
Test [3] can be described thus: Antimicrobial activity against Citrobacter freundii (GC 2211). It is filed as functional.
Test [4] has as its target T1, Dipeptidase 1 (Sus scrofa) (UniProt P22412).
T1 sequence (whole entry): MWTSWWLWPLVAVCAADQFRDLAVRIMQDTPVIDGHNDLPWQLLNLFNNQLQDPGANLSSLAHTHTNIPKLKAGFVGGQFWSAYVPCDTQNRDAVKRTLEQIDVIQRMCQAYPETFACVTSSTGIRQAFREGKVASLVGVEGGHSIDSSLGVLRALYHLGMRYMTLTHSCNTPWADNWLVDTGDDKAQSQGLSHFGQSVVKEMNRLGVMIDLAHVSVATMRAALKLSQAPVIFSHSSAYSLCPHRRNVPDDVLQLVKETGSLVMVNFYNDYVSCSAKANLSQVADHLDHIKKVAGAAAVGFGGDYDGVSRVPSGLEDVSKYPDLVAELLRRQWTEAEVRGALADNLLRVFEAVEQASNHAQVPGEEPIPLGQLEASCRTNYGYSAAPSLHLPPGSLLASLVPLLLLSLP
Kind of test: Relative hydrolysis to that of imipenem was determined by hog renal dehydropeptidase.

The test system of test [5] is Pseudomonas aeruginosa. Kind of test: Antimicrobial activity against Pseudomonas aeruginosa (GC 1544 OprD). Format: functional.
Test [6] has as its system Staphylococcus aureus. The experiment in a line: The compound was evaluated for the antimicrobial activity against methicillin - resistant Staphylococcus aureus (GC 2220). It is filed as functional.
A short description of test [7]: Antimicrobial activity against Enterobacter cloacae (GC 2209). It is filed as functional.
Test [8] is described as follows: Antimicrobial activity against Xanthomonas maltophilia (GC 562). It is filed as functional. The conditions noted are these: Stenotrophomonas maltophilia.
The subject of test [9] is Staphylococcus aureus. The experiment in a line: Antimicrobial activity against Staphylococcus aureus (ATCC 29213). Format: functional.
In test [10] the test system is Escherichia coli. The experiment in a line: Antimicrobial activity against Escherichia coli (ATCC 25922). It is filed as functional.
The subject of test [11] is Escherichia coli. Kind of test: Antimicrobial activity against Escherichia coli (GC 2205). It is filed as functional.
Test [12] concerns Escherichia coli. The experiment in a line: Antimicrobial activity against Escherichia coli (GC 1792). It is filed as functional.
A short description of test [13]: Antimicrobial activity against Morganella morganii (GC 2213). Format: functional.
Another test relates to Enterococcus faecalis. Kind of test: The compound was evaluated for the antimicrobial activity against Enterococcus faecalis (GC 842). Format: functional.
Test [14] concerns the target T1, Dipeptidase 1 (Sus scrofa). The experiment in a line: Relative hydrolysis of compound to that of imipenem was determined by hog renal dehydropeptidase. Format: functional.
Test [15] is described as follows: Antimicrobial activity against Enterococcus faecalis (GC 842). Format: functional.
The subject of test [16] is Staphylococcus aureus. Kind of test: Antimicrobial activity against methicillin - resistant Staphylococcus aureus (GC 2220). Format: functional.
The nature of test [17]: Antimicrobial activity against Enterococcus faecium (GC 1182). Format: functional.
For test [18], the system named is Stenotrophomonas maltophilia. The experiment in a line: The compound was evaluated for the antimicrobial activity against Xanthomonas maltophilia (GC 562). Format: functional.
Test [19] deals with Staphylococcus aureus. The experiment in a line: The compound was evaluated for the antimicrobial activity against Staphylococcus aureus (ATCC 29213). Format: functional.

Consider five compounds from ChEMBL document CHEMBL1150515, “Synthesis and structure-activity relationships of novel THF 1-methylcarbapenems II” (1997).

The term MIC denotes the smallest concentration in the dilution series that meets the test's criterion for growth inhibition.

Molecules are shown by their SMILES. Converted amounts (≈) assume the structure as drawn. A value given as a limit tells only on which side of the number the result lay.

With `CCN1CCN(C(=O)NC[C@H]2OCC[C@H]2SC2=C(C(=O)[O-])N3C(=O)[C@H]([C@@H](C)O)[C@H]3[C@H]2C)C(=O)C1=O.[Na+]`, the MIC was 16 µg/mL against Pseudomonas aeruginosa [1]; 2 µg/mL in test [2]; over 128 µg/mL in the test with Enterococcus faecium; 0.12 µg/mL in [3]; 32 µg/mL against Pseudomonas aeruginosa [5]; 8 µg/mL with Staphylococcus aureus [6]. For the same compound, the MIC in test [7] is at most 0.06 µg/mL; in test [8], over 128 µg/mL; in the test with Staphylococcus aureus [9], at most 0.06 µg/mL; against Escherichia coli [10], at most 0.06 µg/mL; in the test with Escherichia coli [11], at most 0.06 µg/mL; against Escherichia coli [12], at most 0.06 µg/mL. The results for the MIC (in test [13]; with Enterococcus faecalis) were 0.5 µg/mL and 4 µg/mL, respectively. Besides, the Relative hydrolysis in [4] was 9.

On to `C[C@H](N)C(=O)NCC1CC(SC2=C(C(=O)[O-])N3C(=O)[C@H]([C@@H](C)O)[C@H]3[C@H]2C)CO1.[Na+]` (stereo not given in full), for which the MIC against Pseudomonas aeruginosa [1] is 32 µg/mL; in test [2], 8 µg/mL; in test [3], 1 µg/mL; in [15] it was 4 µg/mL; against Staphylococcus aureus [16], 8 µg/mL; against Pseudomonas aeruginosa [5], 64 µg/mL. Besides, the MIC is 0.25 µg/mL in test [7]; over 128 µg/mL in [8]; 0.12 µg/mL in the test on Staphylococcus aureus [9]; at most 0.06 µg/mL in the test with Escherichia coli [10]; at most 0.06 µg/mL in the test on Escherichia coli [11]; at most 0.06 µg/mL in the test on Escherichia coli [12]. Besides, the MIC in test [13] was 1 µg/mL; in test [17] it was over 128 µg/mL. In [14], the Relative hydrolysis is 10.

`C[C@@H](O)[C@H]1C(=O)N2C(C(=O)[O-])=C(SC3COC(CN)C3)[C@H](C)[C@H]12.[Na+]` (stereo not given in full): the MIC with Pseudomonas aeruginosa [1] is 4 µg/mL; in [2], 1 µg/mL; in test [3], 0.06 µg/mL; in test [15] it was 2 µg/mL; against Staphylococcus aureus [16], 8 µg/mL; in the test with Pseudomonas aeruginosa [5], 8 µg/mL. Moreover, the MIC in test [18] is over 128 µg/mL; in [7] it was at most 0.06 µg/mL; against Escherichia coli [10], at most 0.06 µg/mL; in the test with Staphylococcus aureus [19], at most 0.06 µg/mL; in the test on Escherichia coli [11], at most 0.06 µg/mL; with Escherichia coli [12], 0.06 µg/mL. Besides, the minimal inhibitory concentration (MIC) was 0.25 µg/mL in test [13] and over 128 µg/mL in test [17]. In [4], this compound registered a Relative hydrolysis of 19.

Consider `C[C@@H](O)[C@H]1C(=O)N2C(C(=O)O)=C(SCCNC=N)C[C@H]12` [IMIPENEM ANHYDROUS], for which the MIC was 1 µg/mL (≈ 3.34 µM) with Pseudomonas aeruginosa [1]; 0.25 µg/mL (≈ 0.835 µM) in [2]; 0.25 µg/mL (≈ 0.835 µM) in test [3]; 1 µg/mL (≈ 3.34 µM) in test [15]; 1 µg/mL (≈ 3.34 µM) with Staphylococcus aureus [16]; 16 µg/mL (≈ 53.4 µM) with Pseudomonas aeruginosa [5]. For the same compound, the MIC in test [7] was at most 0.06 µg/mL; in [8], over 128 µg/mL; against Staphylococcus aureus [9], at most 0.06 µg/mL; with Escherichia coli [10] it was 0.12 µg/mL (≈ 0.401 µM); with Escherichia coli [11] it was 0.12 µg/mL (≈ 0.401 µM); in the test with Escherichia coli [12], at most 0.06 µg/mL. Also, the MIC in test [13] was 1 µg/mL (≈ 3.34 µM); in test [17] it was 64 µg/mL (≈ 214 µM). In test [4], the Relative hydrolysis was found to be 100.

As for `C[C@H](N)C(=O)NC[C@H]1OCC[C@H]1SC1=C(C(=O)[O-])N2C(=O)[C@H]([C@@H](C)O)[C@H]2[C@H]1C.[Na+]`, the minimal inhibitory concentration (MIC) against Pseudomonas aeruginosa [1] is 32 µg/mL; in test [2] it was 16 µg/mL; in [3], 1 µg/mL; in [15], 4 µg/mL; against Staphylococcus aureus [16], 8 µg/mL; against Pseudomonas aeruginosa [5], 64 µg/mL. Moreover, the MIC was 0.25 µg/mL in test [7]; over 128 µg/mL in test [8]; 0.12 µg/mL in the test with Staphylococcus aureus [9]; at most 0.06 µg/mL in the test on Escherichia coli [10]; at most 0.06 µg/mL with Escherichia coli [11]; at most 0.06 µg/mL against Escherichia coli [12]. In addition, the results for the MIC in test [13] and in [17] were 1 µg/mL and over 128 µg/mL, respectively. This compound also gave a Relative hydrolysis in [4] of 12.
